# Key:
# CL34 = assay: 4 day proliferation assay (CellTiter-Glo); conditions: Homo sapiens, 96 h, read-out: 4 day assay GI50
# 102 common targets = assay: Safety pharmacology panel; conditions: all except COX1
# HEC108 = assay: CFA 10-14 day clonogenic assay; assay type: cell-based; conditions: Homo sapiens
# NUGC3 = assay: 4 day proliferation assay (CellTiter-Glo); conditions: Homo sapiens, NUGC-3, 96 h, read-out: 4 day assay GI50
# IGROV1 = assay: 4 day proliferation assay (CellTiter-Glo); conditions: Homo sapiens, IGROV-1, 96 h, read-out: 4 day assay GI50
# SW48 xenografts = assay: SW48 xenograft efficacy, HRO761, irinotecan and combination; assay type: in vivo, mouse
# Method: All animal studies were conducted in accordance with ethics and procedures covered by permit BS-2275 and BS-1975 issued by the Kantonales Veterinäramt Basel-Stadt and in strict adherence to guidelines of the Eidgenössisches Tierschutzgesetz and the Eidgenössische Tierschutzverordnung, Switzerland. All animal studies were approved by the internal ethics committee. All animals had access to food and water ad libitum and were identified with transponders. They were housed in a specific-pathogen-free facility in IVC racks under a 12 h–12 h light–dark cycle. To establish cell-line-derived xenograft models, 6–7-week-old female athymic nude (Crl:NU(NCr)-Foxn1^nu) or SCID-BEIGE (CB17.Cg-PrkdcscidLystbg-J/Crl) mice from Charles River were engrafted subcutaneously with 5 million tumour cells in HBSS (H6648, Sigma-Aldrich). For SNU-407, Lovo, IM95, RL95.2, Ishikawa and IGROV-1, the cells were concentrated in 50% Matrigel (354234, Corning). Patient-derived xenografts were induced and expanded by transplantation as previously described. […] For the efficacy experiment, mice were randomized into groups (n = 5–6) for a mean tumour size of 100–150 mm^3. […] Blood samples were collected on day 7 and 91. […] Tumour responses are reported with the measures of tumour volumes from the treatment start. […] Animals were randomized (n = 3) and tumour samples were collected at 0, 1, 4, 8 and 24 h on the first day and then collected 4 h after the last treatment on day 3, 8, 10, 14 (including a 24 h timepoint), 17 and 21. Tumours were excised, weighed, either frozen in liquid nitrogen and cryogenic dry pulverized with the CryoPrep system (model CP-02, Covaris) or processed to FFPE after fixation. […] On day 12, blood samples were collected for PK analysis. On the last day (3 h after the last treatment), tumours were excised, weighed, frozen in liquid nitrogen and cryogenic dry pulverized for PD analysis.
# [1] = CL in vivo, intravenous bolus; conditions: whole blood
# Method: PK parameters were determined by non-compartmental analysis. Intravenous bolus studies in mouse, rat and dog were performed at 1, 1 and 0.1 mg per kg respectively (Extended Data Table 1).
# KM12 = assay: 4 day proliferation assay (CellTiter-Glo); conditions: Homo sapiens, KM12, 96 h, read-out: 4 day assay GI50
# LOVO = assay: CFA 10-14 day clonogenic assay; assay type: cell-based; conditions: Homo sapiens
structure (smiles),measurement,setting,value
CCc1c(N2CCN(C(=O)c3ncnc(C)c3O)CC2)c(=O)n2nc(C3=CCOCC3)nc2n1CC(=O)Nc1ccc(C(F)(F)F)cc1Cl [HRO761],GI50,CL34,231 nM
same,Safety pharmacology panel (102 common targets),102 common targets,> 30 μM
same,GI50,HEC108,104 nM
same,GI50,NUGC3,≥ 10000 nM
same,GI50,IGROV1,2760 nM
same,Mean TVol (mm3),"SW48 xenografts; HRO761 20mg/kg, day 0 post 1st dose",247.56 mm3
same,Mean TVol (mm3),"SW48 xenografts; HRO761 20mg/kg, day 7 post 1st dose",408.23 mm3
same,Mean TVol (mm3),"SW48 xenografts; HRO761 20mg/kg, day 14 post 1st dose",343.04 mm3
same,Mean TVol (mm3),"SW48 xenografts; HRO761 20mg/kg, day 21 post 1st dose",353.40 mm3
same,Mean TVol (mm3),"SW48 xenografts; HRO761 20mg/kg, day 28 post 1st dose",598.05 mm3
same,Mean TVol (mm3),"SW48 xenografts; HRO761 20mg/kg, day 35 post 1st dose",1006.91 mm3
same,Mean TVol (mm3),"SW48 xenografts; HRO761 20mg/kg, day 4 post 1st dose",324.64 mm3
same,Mean TVol (mm3),"SW48 xenografts; HRO761 20mg/kg, day 11 post 1st dose",389.58 mm3
same,Mean TVol (mm3),"SW48 xenografts; HRO761 20mg/kg, day 18 post 1st dose",304.90 mm3
same,Mean TVol (mm3),"SW48 xenografts; HRO761 20mg/kg, day 25 post 1st dose",411.31 mm3
same,Mean TVol (mm3),"SW48 xenografts; HRO761 20mg/kg, day 32 post 1st dose",799.70 mm3
same,Mean TVol (mm3),"SW48 xenografts; HRO761 40mg/kg, day 0 post 1st dose, n=6",170.74 mm3
same,Mean TVol (mm3),"SW48 xenografts; HRO761 40mg/kg, day 3 post 1st dose, n=6",266.92 mm3
same,Mean TVol (mm3),"SW48 xenografts; HRO761 40mg/kg, day 7 post 1st dose, n=6",238.47 mm3
same,Mean TVol (mm3),"SW48 xenografts; HRO761 40mg/kg, day 10 post 1st dose, n=6",242.34 mm3
same,Mean TVol (mm3),"SW48 xenografts; HRO761 40mg/kg, day 14 post 1st dose, n=6",187.67 mm3
same,Mean TVol (mm3),"SW48 xenografts; HRO761 40mg/kg, day 17 post 1st dose, n=6",156.98 mm3
same,Mean TVol (mm3),"SW48 xenografts; HRO761 40mg/kg, day 21 post 1st dose, n=6",121.57 mm3
same,Mean TVol (mm3),"SW48 xenografts; HRO761 40mg/kg, day 24 post 1st dose, n=6",71.41 mm3
same,Mean TVol (mm3),"SW48 xenografts; HRO761 40mg/kg, day 28 post 1st dose, n=6",43.54 mm3
same,Mean TVol (mm3),"SW48 xenografts; HRO761 40mg/kg, day 31 post 1st dose, n=6",43.20 mm3
same,Mean TVol (mm3),"SW48 xenografts; HRO761 40mg/kg, day 35 post 1st dose, n=6",52.04 mm3
same,Mean TVol (mm3),"SW48 xenografts; HRO761 40mg/kg, day 38 post 1st dose, n=6",63.12 mm3
same,Mean TVol (mm3),"SW48 xenografts; HRO761 40mg/kg, day 43 post 1st dose, n=6",108.93 mm3
same,Mean TVol (mm3),"SW48 xenografts; HRO761 40mg/kg, day 46 post 1st dose, n=6",106.14 mm3
same,Mean TVol (mm3),"SW48 xenografts; HRO761 40mg/kg, day 49 post 1st dose, n=6",165.61 mm3
same,Mean TVol (mm3),"SW48 xenografts; HRO761 40mg/kg, day 52 post 1st dose, n=6",180.62 mm3
same,Mean TVol (mm3),"SW48 xenografts; HRO761 40mg/kg, day 56 post 1st dose, n=6",250.37 mm3
same,Mean TVol (mm3),"SW48 xenografts; HRO761 40mg/kg, day 59 post 1st dose, n=6",307.84 mm3
same,Mean TVol (mm3),"SW48 xenografts; HRO761 40mg/kg, day 63 post 1st dose, n=6",385.98 mm3
same,Mean TVol (mm3),"SW48 xenografts; HRO761 40mg/kg, day 67 post 1st dose, n=6",504.27 mm3
same,Mean TVol (mm3),"SW48 xenografts; HRO761 40mg/kg, day 70 post 1st dose, n=6",521.42 mm3
same,Mean TVol (mm3),"SW48 xenografts; HRO761 40mg/kg, day 73 post 1st dose, n=6",687.64 mm3
same,clearance,"[1]; 0.1 mg/kg, dog, intravenous bolus 0.1 mg per kg",4.3 mL/min/kg
same,clearance,"[1]; 1 mg/kg, mouse, intravenous bolus 1 mg per kg",29 mL/min/kg
same,clearance,"[1]; 1 mg/kg, rat, intravenous bolus 1 mg per kg",5.3 mL/min/kg
same,GI50,KM12,1380 nM
same,GI50,LOVO,73 nM
